System: HCV 1b genotype replicon
Assay: Cell-based HCV replicon assay (qRT-PCR or luciferase), genotype 1b
Details: Hepatitis C virus
Method: Cell-Based Replicon Assay
The anti-HCV activity of the compounds is determined using the cell-based replicon assay and the HCV replication assay described in US Publication No: 2010/0003214, incorporated herein by reference in its entirety.
HCV Replicon Assay—Luciferase
Since clinical drug resistance often develops in viral infections following single agent therapies, there is a need to assess the additive, antagonistic, or synergistic properties of combination therapies. We use the HCV replicon system to assess the potential use of the compound of the present invention or in combination therapies with Interferon alpha, cyclosporine analogs and inhibitors targeting other HCV proteins. The acute effects of a single or combinations of drugs are studied in the “Huh-luc/neo-ET” replicon with each chemical agent titrated in an X or Y direction in a 6 point two-fold dilution curve centered around the EC50 of each drug. […] Using this method, the combination data are analyzed for antagonistic, additive, or synergistic combination effects across the entire combination surface created by the diluted compounds in combination. […]

| Compound | EC50 |
| --- | --- |
| O=C1N[C@H]2CCCCC/C=C\[C@@H]3C[C@@]3(C(=O)NS(=O)(=O)C3CC3)NC(=O)[C@@H]3C[C@H](CN3C2=O)Oc2nc3ccccc3nc2-c2cccc(c2)OCC(F)(F)CO1 [Example 2] | < 1 nM |
| CC1(C)CC/C=C/C(F)(F)c2nc3ccccc3nc2O[C@@H]2C[C@H]3C(=O)N[C@]4(C(=O)NS(=O)(=O)C5CC5)C[C@H]4/C=C\CCCCC[C@H](NC(=O)OC1)C(=O)N3C2 [Example 8] | < 1 nM |

Reference: patent publication US9193740B2, “Bismacrocyclic compounds as hepatitis C virus inhibitors” (Enanta Pharmaceuticals, Inc., priority 2009, dated 2015)
